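The concentration for 50% growth inhibition is given as GI50. At the TGI there is no net growth.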
How the values were obtained:
Experiment in all cases: NCI anticancer screen, dose series, 384-well format
MALME-3M melanoma = system: MALME-3M melanoma
CCRF-CEM leukemia = system: CCRF-CEM leukemia
RPMI-8226 leukemia = system: RPMI-8226 leukemia
SW-620 colon = system: SW-620 colon
SK-OV-3 ovarian = system: SK-OV-3 ovarian
HOP-62 NSCLC = system: HOP-62 NSCLC
HL-60(TB) leukemia = system: HL-60(TB) leukemia
A549 NSCLC = system: A549 NSCLC
DU-145 prostate = system: DU-145 prostate
MOLT-4 leukemia = system: MOLT-4 leukemia
NCI-H23 lung = system: NCI-H23 lung
SF-295 CNS = system: SF-295 CNS
HT29 colon = system: HT29 colon

Q: For COc1cc(C)[nH]c(=O)c1CNC(=O)c1c(C)n([C@H](C)C2CCN(CC(F)(F)F)CC2)c2ccccc12, which GI50 (MALME-3M melanoma) is on record?
A: > 66.1 µM

Q: What about the TGI (MALME-3M melanoma) of the same compound?
A: > 100 µM

Q: And the GI50 (CCRF-CEM leukemia)?
A: 21.6 µM

Q: And the TGI (CCRF-CEM leukemia)?
A: 43.9 µM

Q: What about the GI50 (RPMI-8226 leukemia) of the same compound?
A: 2.4 µM

Q: What about the TGI (RPMI-8226 leukemia) of the same compound?
A: 10.3 µM

Q: What about the GI50 (SW-620 colon) of the same compound?
A: 52 µM

Q: And the TGI (SW-620 colon)?
A: > 91.9 µM

Q: And the GI50 (SK-OV-3 ovarian)?
A: 56.6 µM

Q: What about the TGI (SK-OV-3 ovarian) of the same compound?
A: > 100 µM

Q: What about the GI50 (HOP-62 NSCLC) of the same compound?
A: 46.7 µM

Q: What about the TGI (HOP-62 NSCLC) of the same compound?
A: > 100 µM

Q: What about the GI50 (HL-60(TB) leukemia) of the same compound?
A: 33.4 µM

Q: What about the TGI (HL-60(TB) leukemia) of the same compound?
A: > 61.6 µM

Q: And the GI50 (A549 NSCLC)?
A: 46.8 µM

Q: And the TGI (A549 NSCLC)?
A: > 100 µM

Q: What about the GI50 (DU-145 prostate) of the same compound?
A: 51.1 µM

Q: And the TGI (DU-145 prostate)?
A: > 100 µM

Q: What about the GI50 (MOLT-4 leukemia) of the same compound?
A: 16.5 µM

Q: What about the TGI (MOLT-4 leukemia) of the same compound?
A: 31.3 µM

Q: And the GI50 (NCI-H23 lung)?
A: > 100 µM

Q: And the TGI (NCI-H23 lung)?
A: > 100 µM

Q: And the GI50 (SF-295 CNS)?
A: 76.6 µM

Q: What about the TGI (SF-295 CNS) of the same compound?
A: > 100 µM

Q: And the GI50 (HT29 colon)?
A: 39.7 µM

Q: And the TGI (HT29 colon)?
A: > 100 µM

Source: PubChem BioAssay (NCI)
